Measurements: PubChem BioAssay AID192 (DTP/NCI, 2004)
“And” between values parts separate entries of the source, which are not always exact repeats. Equal values may be shown once. Toxic doses and inconclusive results are not listed. Rule for the calls: active = survival T/C of 150% or more; inactive = T/C below 125% in these data.

System: BDF1 mice, B16 melanoma ip, median survival T/C
Assay: NCI In Vivo Anticancer Drug Screen. Data for tumor model B16 Melanoma (intraperitoneal) in B6D2F1 (BDF1) mice
Settings: endpoint: median survival time, higher = longer survival
Procedure, shortened: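 Values are ratios of treated (T) to vehicle-control (C) measurements of survival or tumor size in tumor-bearing mice.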

[1] = dose: 50.0 mg/kg/injection, schedule: Q01DX009 (ip), vehicle: Klucel (hydroxypropylcellulose) (HPC)
[2] = dose: 100.0 mg/kg/injection, schedule: Q01DX009 (ip), vehicle: Klucel (hydroxypropylcellulose) (HPC)
[3] = dose: 200.0 mg/kg/injection, schedule: Q01DX009 (ip), vehicle: Klucel (hydroxypropylcellulose) (HPC)
[4] = dose: 400.0 mg/kg/injection, schedule: Q01DX009 (ip), vehicle: Klucel (hydroxypropylcellulose) (HPC)
[5] = dose: 50.0 mg/kg/injection, schedule: Q01DX009 (ip), vehicle: saline with Tween-80
[6] = dose: 100.0 mg/kg/injection, schedule: Q01DX009 (ip), vehicle: saline with Tween-80
[7] = dose: 6.25 mg/kg/injection, schedule: Q01DX009 (ip), vehicle: saline with Tween-80
[8] = dose: 12.5 mg/kg/injection, schedule: Q01DX009 (ip), vehicle: saline with Tween-80
[9] = dose: 25.0 mg/kg/injection, schedule: Q01DX009 (ip), vehicle: saline with Tween-80
[10] = dose: 100.0 mg/kg/injection, schedule: Q01DX009 (ip), vehicle: saline
[11] = dose: 200.0 mg/kg/injection, schedule: Q01DX009 (ip), vehicle: saline

Measured: T/C

COC1C(O)CC(OC2C(C)OC(Oc3cc(O)c4c(O)c5c(cc4c3)C[C@@H]([C@H](OC)C(=O)[C@@H](O)[C@@H](C)O)[C@H](OC3CC(OC4CC(OC6CC(C)(O)C(O)C(C)O6)C(O)C(C)O4)C(O)C(C)O3)C5=O)CC2OC(C)=O)OC1C (some centres not stated)
inactive: dose: 37.5 mg/kg/injection, schedule: Q01DX009 (ip), vehicle: saline 110 % of control | dose: 75.0 mg/kg/injection, schedule: Q01DX009 (ip), vehicle: saline 113 % of control | dose: 150.0 mg/kg/injection, schedule: Q01DX009 (ip), vehicle: saline 111 % of control

CN1C(=O)CCS(=O)(=O)C1c1ccc(Cl)cc1 (configuration not stated)
inactive: dose: 0.13 mg/kg/injection, schedule: Q01DX009 (ip), vehicle: saline 109 % of control | dose: 0.25 mg/kg/injection, schedule: Q01DX009 (ip), vehicle: saline 101 % of control | dose: 0.38 mg/kg/injection, schedule: Q01DX009 (ip), vehicle: saline 95 % of control | dose: 0.39 mg/kg/injection, schedule: Q01DX009 (ip), vehicle: Klucel (hydroxypropylcellulose) (HPC) 100 % of control | dose: 0.5 mg/kg/injection, schedule: Q01DX009 (ip), vehicle: saline 111 % of control | dose: 0.75 mg/kg/injection, schedule: Q01DX009 (ip), vehicle: saline 98 % of control | dose: 1.0 mg/kg/injection, schedule: Q01DX009 (ip), vehicle: saline 115 % of control | dose: 1.5 mg/kg/injection, schedule: Q01DX009 (ip), vehicle: saline 101 % of control | dose: 1.56 mg/kg/injection, schedule: Q01DX009 (ip), vehicle: Klucel (hydroxypropylcellulose) (HPC) 109 % of control | dose: 2.0 mg/kg/injection, schedule: Q01DX009 (ip), vehicle: saline 104 % of control | dose: 3.0 mg/kg/injection, schedule: Q01DX009 (ip), vehicle: saline 104 % of control | dose: 3.12 mg/kg/injection, schedule: Q01DX009 (ip), vehicle: Klucel (hydroxypropylcellulose) (HPC) 100 % of control | dose: 6.25 mg/kg/injection, schedule: Q01DX009 (ip), vehicle: Klucel (hydroxypropylcellulose) (HPC) 102 % of control

COc1ccc(Cl)cc1NC(=O)c1ccc(Cl)cc1Cl
inactive: dose: 100.0 mg/kg/injection, schedule: Q04DX003 (ip), vehicle: saline with Tween-80 100 % of control | dose: 200.0 mg/kg/injection, schedule: Q04DX003 (ip), vehicle: saline with Tween-80 97 % of control | dose: 400.0 mg/kg/injection, schedule: Q04DX003 (ip), vehicle: saline with Tween-80 95 % of control

O=C1c2ccccc2-c2ncccc21
inactive: [1] 100 % of control | [2] 87 % of control | [3] 96 % of control

CCC(=O)O[C@H]1CC[C@H]2[C@@H]3CCC4=CC(=O)CC[C@]4(C)[C@H]3CC[C@]12C
inactive: dose: 25.0 mg/kg/injection, schedule: Q01DX009 (ip), vehicle: Klucel (hydroxypropylcellulose) (HPC) 96 % of control | dose: 40.0 mg/kg/injection, schedule: Q02DX009 (ip), vehicle: Klucel (hydroxypropylcellulose) (HPC) 100 % of control | [1] 90 % of control | dose: 80.0 mg/kg/injection, schedule: Q02DX009 (ip), vehicle: Klucel (hydroxypropylcellulose) (HPC) 105 % of control | [2] 95 % of control | [3] 91 % of control | dose: 320.0 mg/kg/injection, schedule: Q02DX009 (ip), vehicle: Klucel (hydroxypropylcellulose) (HPC) 105 % of control | [4] 94 % of control

CN(C)c1c(-c2ccccc2)cc(-c2ccccc2)[nH]c1=O
inactive: [5] 92 % of control | [6] 86 % of control

COc1ccc2c(c1)CCC1=C2CCC2(C)C(=O)OC(=O)C12 (configuration not stated)
inactive: [2] 103 % of control | [3] 96 % of control | [4] 100 % of control

O=c1c2ccccc2[nH]c(=S)n1C1CCCCC1
inactive: [2] 90 % of control | [3] 90 % of control

OCC1OC(n2cnc3cc(Cl)c(Cl)cc32)C(O)C1O (configuration not stated)
inactive: [7] 101 % of control and 117 % of control | [8] 100 % of control and 104 % of control and 113 % of control | [9] 97 % of control and 113 % of control and 114 % of control | [5] 107 % of control and 116 % of control | [6] 102 % of control and 121 % of control

C=C1N(C)c2ccccc2C1(C)C
inactive: dose: 1.0 mg/kg/injection, schedule: Q01DX009 (ip), vehicle: saline with Tween-80 104 % of control | dose: 2.0 mg/kg/injection, schedule: Q01DX009 (ip), vehicle: saline with Tween-80 100 % of control | dose: 4.0 mg/kg/injection, schedule: Q01DX009 (ip), vehicle: saline with Tween-80 98 % of control | dose: 13.0 mg/kg/injection, schedule: Q01DX009 (ip), vehicle: saline with Tween-80 117 % of control | dose: 19.0 mg/kg/injection, schedule: Q01DX009 (ip), vehicle: saline with Tween-80 98 % of control | dose: 29.0 mg/kg/injection, schedule: Q01DX009 (ip), vehicle: saline with Tween-80 104 % of control | dose: 45.0 mg/kg/injection, schedule: Q01DX009 (ip), vehicle: saline with Tween-80 98 % of control

CC(=O)CC(=O)NCc1cccc(C)n1
inactive: [10] 106 % of control | [11] 111 % of control | dose: 400.0 mg/kg/injection, schedule: Q01DX009 (ip), vehicle: saline 112 % of control

O=CC(=O)c1ccc(O)cc1
inactive: dose: 1.56 mg/kg/injection, schedule: Q01DX009 (ip), vehicle: saline 105 % of control | dose: 3.12 mg/kg/injection, schedule: Q01DX009 (ip), vehicle: saline 97 % of control | dose: 6.25 mg/kg/injection, schedule: Q01DX009 (ip), vehicle: saline 106 % of control

Cc1ccc(NC(=O)Nc2ccccc2Cl)cc1
inactive: dose: 100.0 mg/kg/injection, schedule: Q01DX009 (ip), vehicle: gum acacia 89 % of control

O=C1CC2C=CCC12 (configuration not stated)
inactive: [6] 107 % of control | dose: 200.0 mg/kg/injection, schedule: Q01DX009 (ip), vehicle: saline with Tween-80 100 % of control | dose: 400.0 mg/kg/injection, schedule: Q01DX009 (ip), vehicle: saline with Tween-80 91 % of control

c1ccc(N2CCOCC2)cc1
inactive: [2] 96 % of control | [3] 96 % of control

CCCC1CC[N-]CC1.CCCC1CC[N-]CC1.[Br][Pt+2]([Br])([Br])[Br]
inactive: dose: 3.13 mg/kg/injection, schedule: Q01DX009 (ip), vehicle: water 98 % of control | dose: 6.25 mg/kg/injection, schedule: Q01DX009 (ip), vehicle: water 102 % of control | dose: 12.5 mg/kg/injection, schedule: Q01DX009 (ip), vehicle: water 97 % of control

CC(C)NNC(=O)C(N)CCC(=O)O (configuration not stated)
inactive: dose: 25.0 mg/kg/injection, schedule: Q01DX009 (ip), vehicle: saline 97 % of control | dose: 50.0 mg/kg/injection, schedule: Q01DX009 (ip), vehicle: saline 104 % of control | [10] 95 % of control | [11] 100 % of control

Cc1ccc(NS(=O)(=O)c2ccc(F)cc2)c(C)c1
inactive: [2] 106 % of control | [3] 110 % of control | [4] 93 % of control

CO[C@@H]1[C@H](O)CC[C@]2(CO2)[C@H]1[C@@]1(C)O[C@@H]1CC=C(C)C
inactive: dose: 3.13 mg/kg/injection, schedule: Q01DX009 (ip), vehicle: saline with Tween-80 104 % of control | [7] 102 % of control | [8] 102 % of control | [9] 108 % of control | [5] 123 % of control

Cc1ccc2c(c1)CN(Cc1ccccc1)CO2
inactive: [2] 93 % of control | [3] 96 % of control | [4] 96 % of control

C=C1C(=O)C23[C@H](O)C1CC[C@H]2[C@]12COC3(O)[C@@H](O)[C@@H]1C(C)(C)CC[C@@H]2O
inactive: dose: 1.56 mg/kg/injection, schedule: Q01DX009 (ip), vehicle: saline with Tween-80 105 % of control | dose: 3.12 mg/kg/injection, schedule: Q01DX009 (ip), vehicle: saline with Tween-80 93 % of control | [7] 96 % of control

COc1cc2cc3c4cc(OC)c(OC)cc4cc[n+]3c(C)c2cc1OC
inactive: dose: 400.0 mg/kg/injection, schedule: Q01DX009 (ip), vehicle: saline sonified 86 % of control

COc1cccc(C(O)c2ccncc2C)c1OC (configuration not stated)
inactive: dose: 25.0 mg/kg/injection, schedule: Q01DX009 (ip), vehicle: water 98 % of control | dose: 50.0 mg/kg/injection, schedule: Q01DX009 (ip), vehicle: water 98 % of control | dose: 100.0 mg/kg/injection, schedule: Q01DX009 (ip), vehicle: water 101 % of control | dose: 200.0 mg/kg/injection, schedule: Q01DX009 (ip), vehicle: water 104 % of control
